The values that follow come from patent US20050020519A1, “Modulation of insulin-regulated aminopeptidase (irap)/angiotensin iv (at4) receptor activity” (priority 2001, published 2005).

Where no end group is shown, it is not given here.

The target in assay [1] is T1, IRAP (Homo sapiens, UniProt Q9UIQ6).
T1 construct: expressed in transfected cells; host or cells: HEK 293T cells (solubilised membrane protein)
The assay is described as follows: Degradation of peptides by IRAP expressed in HEK 293T cells, HPLC with mass spectrometric detection. It is filed as biochemical.
Protocol: At each time point (0, 0.5, 1, 2, 4 & 6 hr), an aliquot containing 5 μg peptide was removed, and the reaction stopped by addition of 4 volumes methanol/1% trifluoroacetic acid (TPA). Samples were dried on a centrifugal vacuum evaporator prior to HPLC analysis with on-line mass spectrometric detector. […] Fragments were identified following mass spectral analysis, using Agilent ChemStation deconvolution software.

The target of assay [2] is T2, AT4 receptor (Bos taurus, UniProt F1N1Q8).
T2 construct: from tissue; host or cells: bovine adrenal gland membranes
T2 sequence (F1N1Q8 1-1022): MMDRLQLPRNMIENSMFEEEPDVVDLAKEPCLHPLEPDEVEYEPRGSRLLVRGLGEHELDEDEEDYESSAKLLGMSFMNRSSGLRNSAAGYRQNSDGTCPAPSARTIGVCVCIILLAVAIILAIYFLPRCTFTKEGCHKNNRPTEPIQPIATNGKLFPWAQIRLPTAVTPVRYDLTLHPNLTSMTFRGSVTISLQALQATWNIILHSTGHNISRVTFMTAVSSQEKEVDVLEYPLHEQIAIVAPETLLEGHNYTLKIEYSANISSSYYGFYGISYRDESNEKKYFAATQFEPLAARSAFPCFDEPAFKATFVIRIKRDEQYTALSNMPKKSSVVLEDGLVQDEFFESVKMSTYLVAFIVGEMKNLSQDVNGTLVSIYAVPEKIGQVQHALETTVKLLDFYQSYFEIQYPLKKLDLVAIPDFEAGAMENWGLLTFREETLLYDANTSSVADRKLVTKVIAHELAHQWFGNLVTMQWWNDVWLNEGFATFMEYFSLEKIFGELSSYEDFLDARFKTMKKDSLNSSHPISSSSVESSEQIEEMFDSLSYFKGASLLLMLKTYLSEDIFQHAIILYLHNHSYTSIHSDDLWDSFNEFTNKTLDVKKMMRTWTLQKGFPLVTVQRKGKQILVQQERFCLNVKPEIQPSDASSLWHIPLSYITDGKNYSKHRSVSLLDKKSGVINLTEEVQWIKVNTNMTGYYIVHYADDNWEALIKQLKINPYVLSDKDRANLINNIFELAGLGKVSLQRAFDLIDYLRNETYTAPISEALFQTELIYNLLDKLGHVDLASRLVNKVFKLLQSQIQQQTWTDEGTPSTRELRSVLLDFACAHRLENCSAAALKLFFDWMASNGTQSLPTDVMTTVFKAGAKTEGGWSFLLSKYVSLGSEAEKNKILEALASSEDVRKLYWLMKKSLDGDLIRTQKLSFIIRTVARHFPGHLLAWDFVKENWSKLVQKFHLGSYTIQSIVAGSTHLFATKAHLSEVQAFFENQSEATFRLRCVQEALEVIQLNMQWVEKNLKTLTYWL
The assay is described as follows: AT4 radioreceptor assay, ^125I-Ang IV binding to bovine adrenal membranes. The protocol: The AT4 radioreceptor assay was used to screen the sheep brain extracts for AT4 receptor modulatory activity. The membranes were prepared using bovine adrenal glands obtained from the abattoir. The adrenals were diced, homogenized in ice-cold hypotonic buffer (50 mM Tris, 5 mM EDTA, pH 7.4) and centrifuged for 10 min at 500 g. […] The resulting pellets were re-homogenized in hypotonic buffer. […] The samples were incubated for 2 h at 37° C., and the bound ligand was separated on Whatman GF/B glass fibre filters.

The test system of assay [3] is rat hippocampal slices. Briefly: Potassium-evoked ^3H-choline release from rat hippocampal slices. It is filed as cell-based. To be noted: at 10^−7M. The protocol: To determine the effect of IRAP inhibitors an acetylcholine release for rat hippocampal slices in vitro, rats were anaesthetized with sodium pentobarbitone, decapitated and the brain rapidly extracted and put on ice. The two sides of the hippocampus were then dissected, and stored in Krebs buffer on ice. The tissues were sectioned into 400 μm slices using a McI1wain slicer, and incubated with 10 μM of ^3H-choline in Krebs buffer for 20 min at 37° C. Following the incubation, the sections were transferred to Brandel superfusion chambers filled with carbogenated Krebs buffer, pH7.0 containing […] hemicholinium HC-3 to prevent choline reuptake. The slices were washed for 60 min at 37° C. with Krebs buffer at a flow rate of 500 μl/min. Superfusate samples were collected at 5 min intervals for the duration of the experiment. After a stable baseline was established, the hippocampal slices were depolarised by the addition of 30 mM KCl to the Krebs buffer and infused for 4 min (stimulation period S1). The tissue was then allowed to recover for 25 min before the next stimulation period (S2). To test the effect of […] […] Fractional ^3H-choline release, expressed as a ratio of S2/S1, was then calculated for each of the different peptides at the different doses.

In assay [4] the test system is AT4 receptor. To be noted: Moeller et al, 1996; Zhang et al, 1999; cited from earlier work.
For assay [5], the system named is rats. Briefly: Passive avoidance, scopolamine-induced amnesia. In kind it is in vivo, rat. As to the method: Passive avoidance trials were then used to test the effect of modulation of AT4 receptor/IRAP activity on aversive conditioning behaviour in amnesic animals. The passive avoidance task involves aversive conditioning behaviour to measure facilitation of memory retention and retrieval. The testing was carried out in an apparatus that consisted of a light and a dark compartment separated by a guillotine door. The floor of the dark compartment contained an electrified grid.
Rats were surgically implanted with chronic cannulae in the lateral ventricle. On conditioning day, the animals were habituated in the dark compartment for 5 min with the guillotine door closed. The animals were then placed in their home cages for 5 min before being placed in the light compartment with the guillotine door opened. The latency to enter the dark compartment with all four feet was documented. When the rats entered the dark compartment within 20 s of being placed in the light compartment, they were randomly divided into four treatment groups. The treatment groups were: • (1) saline followed by saline; • (2) saline followed by 1.0 nmole […] (SEQ ID NO:2); • (3) 70 nmole scopolamine followed by saline; and • (4) 70 nmole scopolamine followed by 1.0 nmole […] (SEQ ID NO:2).
All of these were administered into the cerebral ventricles 30 min and 5 min before the acquisition trial. […]

T1 sequence (Q9UIQ6 whole entry): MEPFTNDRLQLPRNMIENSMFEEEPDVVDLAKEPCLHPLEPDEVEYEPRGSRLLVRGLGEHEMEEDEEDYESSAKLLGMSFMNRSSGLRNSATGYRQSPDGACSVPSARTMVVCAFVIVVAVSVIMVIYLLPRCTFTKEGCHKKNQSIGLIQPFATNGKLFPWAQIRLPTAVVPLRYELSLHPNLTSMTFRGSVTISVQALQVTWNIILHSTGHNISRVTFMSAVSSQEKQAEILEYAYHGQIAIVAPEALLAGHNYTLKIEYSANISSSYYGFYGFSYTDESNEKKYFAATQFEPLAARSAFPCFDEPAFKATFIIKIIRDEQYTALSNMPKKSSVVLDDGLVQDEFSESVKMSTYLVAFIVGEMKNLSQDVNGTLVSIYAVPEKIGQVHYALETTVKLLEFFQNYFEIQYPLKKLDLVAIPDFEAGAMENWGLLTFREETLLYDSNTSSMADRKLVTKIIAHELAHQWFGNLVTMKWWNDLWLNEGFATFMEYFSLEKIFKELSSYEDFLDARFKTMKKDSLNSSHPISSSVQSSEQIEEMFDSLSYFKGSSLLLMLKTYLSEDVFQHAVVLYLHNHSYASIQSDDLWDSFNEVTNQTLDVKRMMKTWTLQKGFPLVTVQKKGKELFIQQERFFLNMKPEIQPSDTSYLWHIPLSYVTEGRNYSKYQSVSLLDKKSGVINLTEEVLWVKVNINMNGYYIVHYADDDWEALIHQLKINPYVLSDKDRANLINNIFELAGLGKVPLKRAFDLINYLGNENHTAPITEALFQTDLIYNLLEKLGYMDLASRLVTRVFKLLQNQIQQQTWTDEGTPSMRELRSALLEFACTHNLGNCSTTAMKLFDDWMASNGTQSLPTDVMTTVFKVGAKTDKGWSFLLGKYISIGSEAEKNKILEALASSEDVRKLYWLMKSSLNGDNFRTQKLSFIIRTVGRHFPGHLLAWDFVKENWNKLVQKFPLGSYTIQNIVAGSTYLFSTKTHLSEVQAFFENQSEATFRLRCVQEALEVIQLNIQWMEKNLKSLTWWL

LVVYPWTQRF: the “Substrate disappearance over 4 hr” value in assay [1] (37° C., hIRAP transfected HEK 293T membranes, (=UT) equals untransfected control cells) is 14% (=UT). The “Products Identified” value in assay [1] (incubation at 37° C. with solubilized membrane protein from hIRAP transfected HEK 293T cells) is listed as “VVYPWTQRF”. For the same sequence, in assay [2], the Ki – broadly, the dissociation constant of the complex between target and ligand, obtained from inhibition or displacement – lay in the range of 1 to 5 nM. In addition, the “maximum effect on potassium-evoked ^3H-choline release” value in assay [3] is given as 180 % of control. Moreover, the “affinity for AT4 receptor” value in assay [4] is “nanomolar affinity”. Besides, the figures for the “latency to re-enter the dark compartment” value in assay [5] (1.0 nmole icv after 70 nmole scopolamine) and in assay [5] (1.0 nmole icv alone (after saline)) were “not significantly different from controls” and “comparable to the scopolamine-treated group”, respectively.
